Data reported in patent US4851436A, “HMG-CoA reductase inhibitors” (Merck & Co., Inc., priority 1987, dated 1989).

Columns and labels:
HMG-CoA reductase = assay: In vitro determination of HMG-CoA reductase inhibitory activity; type: biochemical, rat; conditions: for Relative Potency: Relative to compactin arbitrarily assigned a value of 100; for IC50: purified rat liver microsomal HMG-CoA reductase, 37° C., 40 minutes, pH 7.2
Procedure: The intrinsic HMG-CoA reductase inhibition activity of the claimed compounds is measured in the in vitro protocol described below:
The In Vitro Determination of HMG-CoA Reductase Activity in Liver and the In Vitro Testing of Inhibitors
The procedure to measure in vitro HMG-CoA reductase activity in rat liver involves two steps and is based upon the procedure of Alberts et al:^1
1. Preparation of liver microsomal pellets.
2. Assay of the pellet for HMG-CoA reductase activity.
Reference: 1. Alberts, et al., Proceedings of the National Academy of Science, Vol. 77, pp. 3957-61 (1980).
Microsomes are prepared from livers of 150-200 g male rats (Charles River) maintained for a week on ground chow containing 2.0% cholestyramine, a bile acid sequestrant. The rats are sacrificed by cervical dislocation, and the livers removed immediately and chilled on ice. All subsequent operation are carried out at 0°-5° C.
Buffer I (for homogenization)
Procedure: all operation at 4° C.
Purification of HMG-CoA Reductase from Microsomal Pellet
Procedure: all operations are carried out at room temperature
The complete assay system is in a total volume of 0.8 ml in phosphate buffer at pH 7.2 (100 mM) with the cofactors at the following concentrations: MgCl2 3 mM; NADP, 3 mM; glucose-6-phosphate, 10 mM; glucose-6-phosphate dehydrogenase (ED 1.1.1.49) 3.0 enzyme units; reduced glutathione, 50 mM; HMG-CoA (Glutaryl-3-^14 C) 0.2 mM (0.1 μCi) and enzyme suspension, 0.1 ml.
The frozen pellet (enzyme) is allowed to thaw at room temperature for 5 minutes and carefully mixed with a stirring rod to a slurry with 0.1 ml of phosphate buffer (pH 7.2) and then diluted to 2.0 ml with the buffer. A volume (0.1 ml) of enzyme suspension is added to each incubation tube. Compounds to be tested are diluted to an appropriate concentration and added in a volume to 10 μ before adding the enzyme. An "untreated-control" is run along with the compounds.
The complete system is placed in 16×125 mm screw-cap culture tubes and shaken uncapped in a 37° C. water bath for 40 minutes at 160 oscillations per minute. At the end of this period the reaction is stopped by the addition of 0.4 ml of 8N HCl. 3 Mg of unlabeled mevalonolactone in 0.1 ml H2 O is added and the tubes shaken as before for an additional 30 minutes at 37° C. to ensure lactonization of the biosynthetic mevalonate.
200 μl of reaction mixture are applied to Bio-Rex 5 column (5 cm in a Pasteur pipette). Elute three times with one ml each of water into a scintillation vial. Add 10 ml of Aquasol-2, shake and count.
Bio-Rex is an ion-exchange resin, obtained from Bio-Rad. It comes dry in the chloride form and only the 100-200 mesh should be used. It is swelled in water for several hours; any fine particles should be decanted off as these will impair the flow rate. The hydrated resin should be stored at 4° C.
Each assay includes 2 untreated controls plus a "killed control" (reaction is stopped immediately before incubation by addition of 0.4 ml of 8N HCl).
After subtracting killed control CPM from all samples, percent inhibition by the test compounds is calculated as follows: [formula]

[1] = Stability of the free hydroxy acid on standing; type: physicochemical
Procedure: The sodium salt of the compound II from Example 17 is redissolved in 2 ml of ethanol-water (1:1) and added to 10 ml of 1N hydrochloric acid from which the hydroxy acid is extracted with ethyl acetate. The latter solvent is washed once with water, dried, and removed in vacuo with a bath temperature not exceeding 30° C.

Compound | Relative Potency (HMG-CoA reductase) | IC50 (HMG-CoA reductase) | reversion of hydroxy acid to lactone [1]
C[C@H]1C=C2C=C[C@H](C)[C@H](CC[C@@H](O)C[C@@H](O)CC(=O)O)[C@H]2[C@@H](OC(=O)C(C)(C)CO)C1 [n=1, R=H, R1=CH3, R2=CH3, R3=H] | 80 | 0.02 µM | 
CC1C=C2C=CC(C)C(CCC(O)CC(O)CC(=O)O)C2C(OC(=O)C(C)(C)CCO)C1 [n=2, R=H, R1=CH3, R2=CH3, R3=H, 7-[1,2,6,7,8,8a(R)-Hexahydro-2(S),6(R)-dimethyl-8(S)-(2,2-dimethyl-4-hydroxybutyryloxy)naphthalenyl-1(S)]-3(R),5(R)-dihydroxyheptanoic acid] | 64 | 0.0156 µM | slowly reverts to the lactone on standing
CC(CCO)C(=O)O[C@H]1C[C@@H](C)C=C2C=C[C@H](C)[C@H](CC[C@@H](O)C[C@@H](O)CC(=O)O)[C@H]21 (stereo partly drawn) [n=2, R=H, R1=H, R2=CH3, R3=H] | 30 | 0.04 µM | 
C[C@H]1C=C2C=C[C@H](C)[C@H](CC[C@@H](O)C[C@@H](O)CC(=O)O)[C@H]2[C@@H](OC(=O)C(C)(C)CCCO)C1 [n=3, R=H, R1=CH3, R2=CH3, R3=H] | 63 | 0.03 µM | 
